“Also recorded” adds a separate entry of the source.

Series [1] in a line: Plasma concentrations of berberine, berberine glucuronide, simvastatin and simvastatin hydroxy acid in rats (Example 20). In kind it is in vivo. The note with it: rats (n=2); oral simvastatin 6 mg/kg/dose.
Series [2] can be described thus: Stability of synthetic derivatives DHB and THB in solution (UV/VIS). The note with it: for stability over time (oxidation to berberine): several solvents. In kind it is physicochemical. From the text:
UV/VIS spectrometry is a useful tool for monitoring the conversion of DHB to berberine in solution. Several anti-oxidants and encapsulating agents were combined with DHB in solution to increase stability.

In series [3] the test system is PCSK9 expression in HEPG2 cells. As to the kind of experiment: Berberine signaling in HEPG2: PCSK9 western blot of supernatant. In kind it is cell-based, human. The note with it: 24 hours; for expression of PCSK9 in supernatant (western blot): 25 to 3.125 ug/ml, versus negative control. The protocol:
HEPG2 cells were cultured in 24 well plates to confluence in DMEM supplemented with 10% FBS. After reaching confluence, cells were incubated overnight with 0.1% FBS OPTIMEM for serum starvation. After serum starvation the cells were incubated with berberine, DHB, or THB in 0.1% FBS OPTIMEM using the following dose course: 25 ug/ml, 12.5 ug/ml 6.25 ug/ml 3.125 ug/ml for 24 hours. Supernatant was collected after stimulation and western blotted as follows:
(1) Resolved on 12.5% gel.
(3) Blocked with 3% BSA TBST (4) Rabbit anti PCSK9 (Cayman chemicals cat 10007185) at 1/600 in TTBS (5) Wash 3×5 min with TTBS (6) HRP-Goat anti-Rabbit 1/1000 (Cayman chemicals) (7) Wash 3×5 min with TTBS (8) Detection with ECL
Proprotein convertase subtilisin/kexin type 9 (PCSK9) post-transcriptionally downregulates the low-density lipoprotein receptor (LDLR) by binding to the receptor's epidermal growth factor repeat A on the cell surface and shuttling the LDLR to the lysosomes for degradation. […] Previous reports indicate that berberine has lipid lowering effects in both animal models and human trials (Arrigo F. G., Cicero, L., Rovati C. et al., 2007). The signalling effects of berberine, DHB, and THB were evaluated using the human liver cell line HEPG2. PCSK9, an enzyme that acts in cholesterol homeostasis, is expressed in HEPG2 cells and these cells have previously been used as a model of dyslipidemia. PCSK9 binds to LDL receptor causing uptake of LDL and the LDL receptor and targets both molecules for degradation upon internalization. In the absence of PCSK9, LDL and LDL receptor are still internalized, however, LDL receptor is not degraded but instead recycled to the cell surface resulting in more efficient uptake of circulating LDL.
A general note: Immunoblotting shows a protein as a band on a membrane.

Series [4] relates to male Zucker fa/fa rat, a model of type 2 diabetes and metabolic disorder. Description: Efficacy of transdermal berberine alone and in combination with pharmaceuticals in a model of metabolic syndrome (Example 19). The class given is in vivo, obese male Zucker fa/fa rats. The note with it: Zucker fa/fa rats. The protocol: Fourteen obese male Zucker fa/fa rats at 5 weeks of age were housed for five weeks to the age of 10 weeks. During these five weeks, body weight measurements were taken once a week and once daily health observations were conducted for all animals. […] On Day 28, serum and whole liver was collected. […] Food and water intake measurements were taken once a week during the study period of Day 0 to Day 28. […] A sufficient amount of test article was supplied and formulated. Test article product was administered at a dose of 3.6 g/kg twice a day (e.g. […] Berberine cream was weighed fresh daily at each AM and PM dosing to avoid desiccation of the test article. Daily PO and TD dosing of the test articles took place between the hours of 08:00 to 10:00 and 16:00 to 18:00 for 7 days a week between Day 0 to 27. […] The exact time of dosing (up to the minute) was recorded for each animal on the daily dosing sheets. […] Remaining dosing solutions were stored at 4° C. between dosing periods. […] The animals shaved underwemt gaseous anaesthetic according to SOP ROD28.01 to ensure accuracy and avoid undue stress of the animal. The area was further shaven as needed over the course of the dosing period to ensure accurate drug application and absorption. At dosing, the animals were restrained and the transdermal test articles were applied in a uniform layer over the entire shaved area. […] PTS3028).

Series [5] has as its system male Zucker rat, a model of type-2 diabetes and metabolic disorder. As to the kind of experiment: Effect of berberine, metformin and simvastatin on body mass, lipid biomarkers, food and water intake, clinical chemistry (Example 18). The class given is in vivo, obese male Zucker fa/fa rats. The note with it: Zucker rats, Days 0 to 28. The protocol: All in vivo animal husbandry, treatment regiments, and sample collections were completed by InterVivo. The study was completed using obese male Zucker fa/fa rats (Charles River) at 10 weeks of age. […] Shaving was performed under anaesthesia one day prior to initiation of test article administration. The area was further shaven, as needed, over the course of the dosing period to ensure accurate drug application and absorption. For dosing procedures, animals were restrained and the transdermal test articles applied in a uniform layer over the entire shaved area. The shaved administration area was cleaned daily with paper towel before the subsequent transdermal dose was administered. Animals receiving test articles via oral gavage were restrained, and a ball-tipped gavage needle (18G) attached to a syringe containing the dosing solution was first inserted into the mouth, and then into the stomach. To determine the appropriate depth of insertion of the needle, the position corresponding to the last rib was measured prior to insertion. […] Group A), oral administration of berberine (180 mg/kg/dose; […] Group C), and oral administration of the vehicle (Group D) (Table 19). […] Group F), or with orally-administered metformin (200 mg/kg/dose; Group G). […] On Day 28, the animals were dosed in the morning only, prior to euthanasia and tissue collection. Animal body weights were performed once weekly from Day −34 to −2 and daily from Day −1 to 28. Rats were weighed, and the scales were operated and maintained, according to standard operating procedures. Food and water consumption measurements were taken over a 24 hour period, once weekly, from Days 0 to 28. Blood was collected via tail nick on Day-1 to determine unfasted blood glucose level for group allocation. Whole blood was collected via the saphenous vein or other appropriate route on Days 0, 7, 14, 21 and 28 immediately prior to test article administration. […] On Day 28, subjects were anaesthetized with isoflurane, and whole blood was collected via cardiac puncture 2.5 hours (+/−5 minutes) following treatment administration on this day. […]

A short description of series [6]: Solubility testing of berberine and dihydroberberine using various solvents. In kind it is physicochemical. The protocol: Solubility was determined in a step-wise procedure that involved attempting to dissolve the berberine/DHB in the solvents at relatively high concentrations. […] Then the expected solvent was added to the berberine/DHB. The container was sonicated at RT or at 40C for 30 minutes. The following solvents were tested to dissolve the DHB. Dimethyl sulfoxide (Reagent Grade; […] Lot #STB[…]), and Glycerol tributyrate (Sigma T8626; Lot #BCBQ […]). […] The solubility was visually checked and state of solubility was recorded.

Where [7] appears, read: averaged over the entire experiment.

Compound `CCC(C)(C)C(=O)O[C@H]1C[C@@H](C)C=C2C=C[C@H](C)[C@H](CC[C@@H]3C[C@@H](O)CC(=O)O3)[C@H]21` [Simvastatin] displayed a systemic simvastatin concentration in series [1] of 1.83 ng/mL.
On to `COc1ccc2c(c1OC)CN1CCc3cc4c(cc3C1C2)OCO4` (stereo not shown) [THB, tetrahydroberberine], for which the “stability over time (oxidation to berberine)” value in series [2] is reported as “excellent stability in several solvents”. In addition, the “expression of PCSK9 in supernatant (western blot)” value in series [3] is on record as “did not affect expression of PCSK9; also recorded: did not appear to reduce expression of PCSK9”.
Take `CN(C)C(=N)N=C(N)N` [Metformin]: the “rate of weight gain (grams/day)” value in series [4] (BID, Day 0 to 28, n=2) is 3.3 grams/day. Also, the “overall triglyceride levels (mmol/L+/−SEM)” value in series [4] (averaged for the entire experiment) came to 15.1 ± 0.4 mmol/L. For the same compound, in series [4] (setting [7]), the “overall HbA1c level change (mmol/mmol+/−SEM)” value was 34.3+/−0.4 mmol/mmol, the “overall average food intake (grams+/−SEM)” value is 33.4+/−0.7 grams and the “overall cholesterol level change (mmol/L+/−SEM)” value was found to be 5.0 ± 0.4 mmol/L. Also, the “overall average glucose change (%+/−SEM)” value in series [4] (non-fasting glucose, averaged over the entire experiment) is on record as 5.9+/−5.9%. For the same compound, the “HbA1c (in words)” value in series [5] is given as “largest reduction in HbA1c”.
Turning to `COc1ccc2c(c1OC)CN1CCc3cc4c(cc3C1=C2)OCO4` [DHB, dihydroberberine], the “oxidation of DHB to berberine on addition of ascorbic acid or cyclodextrin” value in series [2] (UV/VIS) is “significantly slowed”. The “stability over time (oxidation to berberine)” value in series [2] is on record as “prone to oxidation to provide berberine after a short time”. Besides, the “Dissolving Capability” value in series [6] (Acetone, sonication 40 C.) worked out at 25.0 mg/mL; in series [6] (Acetone, sonication RT) it was 12.5 mg/mL; in series [6] (Dimethyl sulfoxide (DMSO), sonication 40 C.), 50.0 mg/mL; in series [6] (Dimethyl sulfoxide (DMSO), sonication RT) it was 25.0 mg/mL; in series [6] (Ethanol, sonication 40 C.) it was 2.5 mg/mL; in series [6] (Ethanol, sonication RT), 1.0 mg/mL. In addition, the “Dissolving Capability” value in series [6] (Glycerol tributyrate, sonication 40 C.) was 75 to 250 mg/mL; in series [6] (Glycerol tributyrate, sonication RT) it was 10 mg/mL; in series [6] (Hexylene glycol, sonication 40 C.), 1.0 mg/mL; in series [6] (Hexylene glycol, sonication RT), 0.5 mg/mL; in series [6] (Isopropyl myristate, sonication 40 C.), 75 to 250 mg/mL; in series [6] (Isopropyl myristate, sonication RT), 10 mg/mL. The “Dissolving Capability” value in series [6] (Isosorbid-dimethyl ether 98%, sonication 40 C.) was determined as 250 mg/mL; in series [6] (Isosorbid-dimethyl ether 98%, sonication 40 C., listed as Dihydroberberine) it was 250 mg/mL; in series [6] (Isosorbid-dimethyl ether 98%, sonication RT), 25.0 mg/mL; in series [6] (Mineral oil, sonication 40 C.) it was 4.0 mg/mL; in series [6] (Mineral oil, sonication RT) it was 2.0 mg/mL; in series [6] (Oleyl alcohol, sonication 40 C., listed as Dihydroberberine), 50 mg/mL. For the same compound, the “Dissolving Capability” value in series [6] (Oleyl alcohol, sonication 40 C., listed as dihydroberberine) was found to be 50.0 mg/mL; in series [6] (Oleyl alcohol, sonication RT), 12.5 mg/mL; in series [6] (Propanediol, sonication 40 C.), 2.5 mg/mL; in series [6] (Propanediol, sonication RT), 1.0 mg/mL; in series [6] (Trivalin, sonication 40 C.), 5.0 mg/mL; in series [6] (Trivalin, sonication RT), 2.5 mg/mL. Further, the “Dissolving Capability” value is recorded as 1.0 mg/mL in series [6] (Water, sonication 40 C.) and 0.5 mg/mL in series [6] (Water, sonication RT). The “concentration down to which expression of PCSK9 was reduced” value in series [3] was 6.25 µg/mL. In addition, the “expression of PCSK9 in supernatant (western blot)” value in series [3] was “down-regulate the expression of PCSK9; also recorded: reduce the expression of PCSK9”.

The values are drawn from patent US20180235870A1, “TRANSDERMAL FORMULATIONS FOR DELIVERY OF BERBERINE COMPOUNDS, AND THEIR USE IN THE TREATMENT OF BERBERINE-RESPONSIVE DISEASES AND CONDITIONS” (DELIVRA INC., priority 2015, published 2018).
